target: T1, hAhR (Homo sapiens, UniProt P35869); test: AhR DRE-luciferase reporter transcriptional assay, antagonist mode (TCDD-induced); assay type: cell-based; details: HEPG2 DRE-Luc cells, 3 nM TCDD, 24 hour incubation, relative IC50
T1 construct: Stably integrated DRE-luciferase cell lines were generated by transducing the both cell lines with Cignal XRE luciferase reporter (Qiagen) lentiviral particles; endogenous in cells
T1 sequence (P35869 11-848): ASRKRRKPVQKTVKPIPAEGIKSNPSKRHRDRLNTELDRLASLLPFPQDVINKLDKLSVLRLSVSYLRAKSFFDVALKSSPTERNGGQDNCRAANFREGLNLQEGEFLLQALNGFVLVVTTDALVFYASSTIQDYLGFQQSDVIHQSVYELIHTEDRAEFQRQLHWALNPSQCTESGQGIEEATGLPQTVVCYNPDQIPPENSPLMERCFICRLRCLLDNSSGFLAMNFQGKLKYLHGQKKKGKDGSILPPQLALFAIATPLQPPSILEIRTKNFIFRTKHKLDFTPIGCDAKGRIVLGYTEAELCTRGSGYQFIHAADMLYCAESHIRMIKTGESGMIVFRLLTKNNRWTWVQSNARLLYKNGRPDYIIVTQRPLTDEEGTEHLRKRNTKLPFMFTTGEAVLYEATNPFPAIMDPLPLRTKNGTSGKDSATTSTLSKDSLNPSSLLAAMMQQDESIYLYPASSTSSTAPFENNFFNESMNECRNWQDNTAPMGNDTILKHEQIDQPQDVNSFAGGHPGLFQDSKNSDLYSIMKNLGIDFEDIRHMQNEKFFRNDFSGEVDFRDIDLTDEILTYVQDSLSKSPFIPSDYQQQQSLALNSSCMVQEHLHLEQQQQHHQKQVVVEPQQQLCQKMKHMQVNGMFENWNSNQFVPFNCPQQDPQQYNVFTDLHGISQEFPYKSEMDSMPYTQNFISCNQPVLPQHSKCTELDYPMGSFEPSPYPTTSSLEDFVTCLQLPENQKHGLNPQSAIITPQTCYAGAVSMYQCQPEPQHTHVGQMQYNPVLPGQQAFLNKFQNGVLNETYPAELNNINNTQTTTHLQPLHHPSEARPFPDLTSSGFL
Method in brief: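 HepG2 cells carrying a stably integrated DRE-luciferase reporter, in OptiMEM with 0.5% FBS; semi-log compound doses added with 3 nM TCDD, 24 h incubation, firefly luciferase read-out. Percent maximal activity normalised between vehicle ± TCDD; relative IC50 taken as half-reduction between curve plateaus.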

Structure (SMILES)	IC50
Cc1cc(-c2ncc3cc(C(F)(F)F)ccc3n2)ccc1N(C)C(=O)c1ccnc(C(N)=O)c1 [Example 152, N4-methyl-N4-(2-methyl-4-(6-(trifluoromethyl)quinazolin-2-yl)phenyl)pyridine-2,4-dicarboxamide]	< 200 nM
Cc1cc(-c2ccc3c(C(F)(F)F)cn(C)c3c2)ccc1N(C)C(=O)c1ccnn1C [Example 087, N,1-dimethyl-N-(2-methyl-4-(1-methyl-3-(trifluoromethyl)-1H-indol-6-yl)phenyl)-1H-pyrazole-5-carboxamide]	1000 to 10000 nM
Cc1cc(-c2ncc3cc(C(F)(F)F)ccc3n2)ccc1N1CCNC1=O [Example 141, 1-(2-methyl-4-(6-(trifluoromethyl)quinazolin-2-yl)phenyl)imidazolidin-2-one]	< 200 nM
Cc1cc(C(=O)Nc2ccc(-c3ncc4cc(C(F)(F)F)ccc4n3)cc2C)c(C)cn1 [Example 125, 2,5-dimethyl-N-(2-methyl-4-(6-(trifluoromethyl)quinazolin-2-yl)phenyl)isonicotinamide]	< 200 nM
Cc1cc(-c2ncc3nc(C(F)(F)F)ccc3n2)c(C)cc1NC(=O)c1ccnn1C [Example 189, N-(2,5-dimethyl-4-(6-(trifluoromethyl)pyrido[3,2-d]pyrimidin-2-yl)phenyl)-1-methyl-1H-pyrazole-5-carboxamide]	1000 to 10000 nM
Cc1cc(-c2ccc3cc(F)cc(C#N)c3n2)ccc1NC(=O)c1ccnn1C [Example 054, N-(4-(8-cyano-6-fluoroquinolin-2-yl)-2-methylphenyl)-1-methyl-1H-pyrazole-5-carboxamide]	200 to 500 nM
Cc1cc(N(C)C(=O)c2ccnn2C)c(C)cc1-c1ncc2nc(C(F)(F)F)ccc2n1 [Example 188, N-(2,5-dimethyl-4-(6-(trifluoromethyl)pyrido[3,2-d]pyrimidin-2-yl)phenyl)-N,1-dimethyl-1H-pyrazole-5-carboxamide]	< 200 nM
Cc1cc(-c2ccc3cc(F)ccc3n2)ccc1NC(=O)c1cncn1C [Example 034, N-(4-(6-fluoroquinolin-2-yl)-2-methylphenyl)-1-methyl-1H-imidazole-5-carboxamide]	500 to 1000 nM
Cc1cc(C(=O)Nc2ccc(-c3ncc4nc(C(F)(F)F)cc(C)c4n3)cc2C)ccn1 [Example 149, 2-methyl-N-(2-methyl-4-(8-methyl-6-(trifluoromethyl)pyrido[3,2-d]pyrimidin-2-yl)phenyl)isonicotinamide]	< 200 nM
Cc1cc(-c2ccc3cc(F)ccc3n2)ccc1NC(=O)c1cccnn1 [Example 031, N-(4-(6-fluoroquinolin-2-yl)-2-methylphenyl)pyridazine-3-carboxamide]	500 to 1000 nM
Cc1cc(-c2ccc3cnccc3c2)ccc1NC(=O)c1ccnn1C [Example 021, N-(4-(Isoquinolin-6-yl)-2-methylphenyl)-1-methyl-1H-pyrazole-5-carboxamide]	500 to 1000 nM
Cc1cc(-c2ccc3nc(C(F)(F)F)ccc3n2)ccc1N(C)C(=O)c1ccnn1CCO [Example 210, 1-(2-hydroxyethyl)-N-methyl-N-(2-methyl-4-(6-(trifluoromethyl)-1,5-naphthyridin-2-yl)phenyl)-1H-pyrazole-5-carboxamide]	< 200 nM
Cn1nccc1C(=O)Nc1ccc(-c2ccc3cc(F)ccc3n2)cc1OC(F)(F)F [Example 047, N-(4-(6-fluoroquinolin-2-yl)-2-(trifluoromethoxy)phenyl)-1-methyl-1H-pyrazole-5-carboxamide]	1000 to 10000 nM
Cc1cc(-c2ccc3ccc(F)cc3n2)ccc1NC(=O)c1ccnn1C [Example 019, N-(4-(7-fluoroquinolin-2-yl)-2-methylphenyl)-1-methyl-1H-pyrazole-5-carboxamide]	200 to 500 nM
Cc1cc(C(=O)N(C)c2ccc(-c3ncc4cc(C(F)(F)F)ccc4n3)cc2C)c(C)cn1 [Example 126, N,2,5-trimethyl-N-(2-methyl-4-(6-(trifluoromethyl)quinazolin-2-yl)phenyl)isonicotinamide]	< 200 nM
Cc1c(-c2ncc3nc(C(F)(F)F)cc(C)c3n2)ccc(N(C)C(=O)c2ccnn2C)c1F [Example 177, N-(2-fluoro-3-methyl-4-(8-methyl-6-(trifluoromethyl)pyrido[3,2-d]pyrimidin-2-yl)phenyl)-N,1-dimethyl-1H-pyrazole-5-carboxamide]	< 200 nM
Cc1cc(-c2ccc3cnn(C)c3c2)ccc1NC(=O)c1ccnn1C [Example 090, 1-Methyl-N-(2-methyl-4-(1-methyl-1H-indazol-6-yl)phenyl)-1H-pyrazole-5-carboxamide]	1000 to 10000 nM

Structure (SMILES)	IC50
Cc1cc(-c2ncc3nc(C(F)(F)F)ccc3n2)ccc1NC(=O)c1ccnn1CC(C)O (stereo not drawn) [Example 193, 1-(2-hydroxypropyl)-N-(2-methyl-4-(6-(trifluoromethyl)pyrido[3,2-d]pyrimidin-2-yl)phenyl)-1H-pyrazole-5-carboxamide]	500 to 1000 nM
Cc1cc(-c2nc3cc(F)ccc3s2)ccc1NC(=O)c1ccnn1C [Example 099, N-(4-(5-fluorobenzo[d]thiazol-2-yl)-2-methylphenyl)-1-methyl-1H-pyrazole-5-carboxamide]	< 200 nM
Cc1cc(-c2ccc3cc(F)ccc3n2)ccc1NC(=O)c1ccccn1 [Example 026, N-(4-(6-fluoroquinolin-2-yl)-2-methylphenyl)picolinamide]	500 to 1000 nM
Cc1cc(-c2ccc3cccc(F)c3n2)ccc1NC(=O)c1ccnn1C [Example 018, N-(4-(8-fluoroquinolin-2-yl)-2-methylphenyl)-1-methyl-1H-pyrazole-5-carboxamide]	< 200 nM
Cc1cc(-c2ccc3cc(F)ccc3n2)c(F)cc1NC(=O)c1ccnn1C [Example 067, N-(5-fluoro-4-(6-fluoroquinolin-2-yl)-2-methylphenyl)-1-methyl-1H-pyrazole-5-carboxamide]	500 to 1000 nM
Cc1cc(-c2ccc3cc(F)ccc3n2)ccc1NC(=O)c1cncnc1 [Example 030, N-(4-(6-fluoroquinolin-2-yl)-2-methylphenyl)pyrimidine-5-carboxamide]	1000 to 10000 nM
Cc1cc(-c2ncc3cc(C(F)(F)F)ccc3n2)ccc1N(C)C(=O)N(C)C [Example 129, 1,1,3-trimethyl-3-(2-methyl-4-(6-(trifluoromethyl)quinazolin-2-yl)phenyl)urea]	200 to 500 nM
COc1cnccc1C(=O)N(C)c1ccc(-c2ncc3nc(C(F)(F)F)cc(C)c3n2)cc1C [Example 183, 3-methoxy-N-methyl-N-(2-methyl-4-(8-methyl-6-(trifluoromethyl)-pyrido[3,2-d]pyrimidin-2-yl)phenyl)isonicotinamide]	< 200 nM
Cc1cc(-c2ccc3cc(C(F)(F)F)ccc3n2)c(C)cc1NC(=O)c1nn(C)cc1C [Example 208, N-(2,5-dimethyl-4-(6-(trifluoromethyl)quinolin-2-yl)phenyl)-1,4-dimethyl-1H-pyrazole-3-carboxamide]	1000 to 10000 nM
Cc1cc(N(C)C(=O)c2ccnn2C)c(F)cc1-c1ncc2nc(C(F)(F)F)cc(C)c2n1 [Example 179, N-(2-fluoro-5-methyl-4-(8-methyl-6-(trifluoromethyl)pyrido[3,2-d]pyrimidin-2-yl)phenyl)-N,1-dimethyl-1H-pyrazole-5-carboxamide]	200 to 500 nM
COc1cnccc1C(=O)Nc1ccc(-c2ncc3cc(C(F)(F)F)ccc3n2)cc1C [Example 144, 3-methoxy-N-(2-methyl-4-(6-(trifluoromethyl)quinazolin-2-yl)phenyl)isonicotinamide]	< 200 nM
Cc1cc(-c2ccc3cccc(Cl)c3n2)ccc1NC(=O)c1ccnn1C [Example 012, N-(4-(8-chloroquinolin-2-yl)-2-methylphenyl)-1-methyl-1H-pyrazole-5-carboxamide]	< 200 nM
Cc1cc(-c2ccc3cc(OC(F)(F)F)ccc3n2)ccc1N(C)C(=O)c1ccnn1C [Example 010, N,1-dimethyl-N-(2-methyl-4-(6-(trifluoromethoxy)quinolin-2-yl)phenyl)-1H-pyrazole-5-carboxamide]	200 to 500 nM
Cc1cc(-c2ccc3cc(F)ccc3n2)ccc1NC(=O)c1ccno1 [Example 037, N-(4-(6-fluoroquinolin-2-yl)-2-methylphenyl)isoxazole-5-carboxamide]	500 to 1000 nM
Cn1nccc1C(=O)Nc1ccc(-c2ccc3cc(F)ccc3n2)cc1C(F)(F)F [Example 048, N-(4-(6-fluoroquinolin-2-yl)-2-(trifluoromethyl)phenyl)-1-methyl-1H-pyrazole-5-carboxamide]	1000 to 10000 nM
Cc1cc(-c2ccc3cc(F)ccc3n2)ccc1NC(=O)c1ccnnc1 [Example 029, N-(4-(6-fluoroquinolin-2-yl)-2-methylphenyl)pyridazine-4-carboxamide]	1000 to 10000 nM
